Measurements from ChEMBL document CHEMBL5543092, “Design, synthesis, and biological characterization of proteolysis targeting chimera (PROTACs) for the ataxia telangiectasia and RAD3-related (ATR) kinase” (Eur J Med Chem, 2024).
Calls of active or inactive are those of the source. No cut-off for these calls is given here.

Key:
[1] = Chemical stability of the compound in at pH 7.4 measured at 12 hrs by HPLC based non-enzymatic stability assay; assay type: physicochemical; conditions: buffer, read-out: Stability
[2] = Chemical stability of the compound in at pH 7.4 measured at 6 hrs by HPLC based non-enzymatic stability assay; assay type: physicochemical; conditions: buffer, read-out: Stability
[3] = tested on: HEK293; test: Cytotoxicity against human HEK293 cells assessed as cell viability at 50 uM incubated for 24 hrs by Alamar Blue reagent based assay relative to control; assay type: functional; conditions: read-out: Activity
[4] = Chemical stability of the compound in at pH 7.4 measured at 48 hrs by HPLC based non-enzymatic stability assay; assay type: physicochemical; conditions: buffer, read-out: Stability
[5] = Chemical stability of the compound in at pH 7.4 measured at 72 hrs by HPLC based non-enzymatic stability assay; assay type: physicochemical; conditions: buffer, read-out: Stability
[6] = Chemical stability of the compound in at pH 7.4 measured at 24 hrs by HPLC based non-enzymatic stability assay; assay type: physicochemical; conditions: buffer, read-out: Stability
[7] = target: T1, Protein cereblon/Serine/threonine-protein kinase ATR (Homo sapiens) (UniProt Q13535+Q96SW2); test: PROTAC activity at ATR/CRBN in patient derived human MIA PaCa-2 cells assessed as reduction in protein level at 2 uM measured after 24 hrs by immunoblot analysis relative to untreated control; assay type: cell-based; design: scale not given: the % may be the effect or the level left
[8] = target: T1, Protein cereblon/Serine/threonine-protein kinase ATR (Homo sapiens); test: PROTAC activity at ATR/CRBN in patient derived human MIA PaCa-2 cells assessed as reduction in protein level at 0.1 to 5 uM measured after 24 hrs by immunoblot analysis relative to untreated control; assay type: cell-based; conditions: dose 0.1-5 µM

T1 sequence (Q13535 whole entry, looked up): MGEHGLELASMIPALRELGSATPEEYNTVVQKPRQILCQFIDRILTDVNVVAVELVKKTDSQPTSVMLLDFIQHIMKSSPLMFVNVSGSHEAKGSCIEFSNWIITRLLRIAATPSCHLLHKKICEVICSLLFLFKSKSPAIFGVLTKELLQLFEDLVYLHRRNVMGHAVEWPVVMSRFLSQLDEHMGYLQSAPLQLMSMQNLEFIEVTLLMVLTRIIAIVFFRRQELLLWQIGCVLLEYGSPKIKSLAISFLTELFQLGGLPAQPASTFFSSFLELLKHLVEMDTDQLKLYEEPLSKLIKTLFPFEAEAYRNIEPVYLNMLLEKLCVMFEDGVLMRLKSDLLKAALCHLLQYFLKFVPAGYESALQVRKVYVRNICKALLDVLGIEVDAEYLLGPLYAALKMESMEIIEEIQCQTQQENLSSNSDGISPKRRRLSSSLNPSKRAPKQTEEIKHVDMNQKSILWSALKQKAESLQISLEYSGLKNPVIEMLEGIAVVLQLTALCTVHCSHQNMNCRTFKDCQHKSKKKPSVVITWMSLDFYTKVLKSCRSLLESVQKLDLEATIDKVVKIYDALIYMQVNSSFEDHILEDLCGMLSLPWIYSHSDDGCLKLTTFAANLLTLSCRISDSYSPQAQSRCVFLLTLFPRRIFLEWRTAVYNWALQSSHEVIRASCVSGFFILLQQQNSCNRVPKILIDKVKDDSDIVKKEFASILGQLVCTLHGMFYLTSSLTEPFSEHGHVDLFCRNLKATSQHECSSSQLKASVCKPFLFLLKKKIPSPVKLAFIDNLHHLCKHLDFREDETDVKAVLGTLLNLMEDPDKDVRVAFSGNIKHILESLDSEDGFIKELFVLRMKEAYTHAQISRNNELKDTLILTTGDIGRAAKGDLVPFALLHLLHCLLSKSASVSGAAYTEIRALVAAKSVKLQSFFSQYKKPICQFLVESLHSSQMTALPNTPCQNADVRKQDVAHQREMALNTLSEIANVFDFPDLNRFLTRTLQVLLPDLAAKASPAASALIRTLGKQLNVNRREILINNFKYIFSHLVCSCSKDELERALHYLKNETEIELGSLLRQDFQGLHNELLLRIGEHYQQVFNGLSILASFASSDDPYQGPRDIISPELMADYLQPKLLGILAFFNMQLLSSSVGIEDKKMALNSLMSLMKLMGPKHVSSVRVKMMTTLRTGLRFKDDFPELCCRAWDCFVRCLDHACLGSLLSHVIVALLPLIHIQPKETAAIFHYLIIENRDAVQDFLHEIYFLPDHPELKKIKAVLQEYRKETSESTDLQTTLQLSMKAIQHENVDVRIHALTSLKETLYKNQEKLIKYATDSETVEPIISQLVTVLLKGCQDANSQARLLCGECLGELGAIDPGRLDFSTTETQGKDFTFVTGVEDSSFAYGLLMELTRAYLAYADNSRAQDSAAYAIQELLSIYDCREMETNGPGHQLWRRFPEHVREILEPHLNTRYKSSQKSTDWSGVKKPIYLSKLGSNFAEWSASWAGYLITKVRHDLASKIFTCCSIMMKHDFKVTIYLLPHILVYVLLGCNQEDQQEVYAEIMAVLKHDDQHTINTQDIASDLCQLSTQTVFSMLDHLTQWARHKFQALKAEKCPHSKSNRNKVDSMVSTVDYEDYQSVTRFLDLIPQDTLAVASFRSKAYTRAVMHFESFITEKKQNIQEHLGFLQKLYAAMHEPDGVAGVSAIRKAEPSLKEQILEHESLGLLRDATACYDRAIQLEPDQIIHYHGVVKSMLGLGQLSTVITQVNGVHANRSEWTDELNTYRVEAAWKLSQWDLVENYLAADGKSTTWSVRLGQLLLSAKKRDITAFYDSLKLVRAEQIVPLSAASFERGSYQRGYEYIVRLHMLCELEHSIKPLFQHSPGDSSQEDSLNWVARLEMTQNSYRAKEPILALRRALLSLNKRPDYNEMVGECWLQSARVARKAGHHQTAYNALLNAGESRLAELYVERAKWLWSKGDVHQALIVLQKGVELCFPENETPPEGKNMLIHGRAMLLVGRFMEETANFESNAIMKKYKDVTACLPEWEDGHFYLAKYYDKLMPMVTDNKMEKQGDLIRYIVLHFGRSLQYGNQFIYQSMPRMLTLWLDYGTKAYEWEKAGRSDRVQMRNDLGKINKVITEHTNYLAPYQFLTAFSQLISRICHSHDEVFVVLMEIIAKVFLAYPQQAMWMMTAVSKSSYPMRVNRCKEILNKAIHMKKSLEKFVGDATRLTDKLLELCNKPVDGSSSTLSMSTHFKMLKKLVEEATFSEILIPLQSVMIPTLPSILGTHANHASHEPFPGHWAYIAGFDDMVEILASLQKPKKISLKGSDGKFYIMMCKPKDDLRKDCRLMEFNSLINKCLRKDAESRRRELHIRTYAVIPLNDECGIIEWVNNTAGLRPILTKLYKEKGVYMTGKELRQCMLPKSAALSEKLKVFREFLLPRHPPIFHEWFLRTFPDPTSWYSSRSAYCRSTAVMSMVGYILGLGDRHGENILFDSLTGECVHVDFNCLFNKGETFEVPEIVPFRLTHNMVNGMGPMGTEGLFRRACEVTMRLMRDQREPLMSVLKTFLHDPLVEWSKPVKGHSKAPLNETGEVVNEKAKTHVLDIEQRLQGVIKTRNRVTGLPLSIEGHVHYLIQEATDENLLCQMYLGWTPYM
T1 sequence (Q96SW2 whole entry, looked up): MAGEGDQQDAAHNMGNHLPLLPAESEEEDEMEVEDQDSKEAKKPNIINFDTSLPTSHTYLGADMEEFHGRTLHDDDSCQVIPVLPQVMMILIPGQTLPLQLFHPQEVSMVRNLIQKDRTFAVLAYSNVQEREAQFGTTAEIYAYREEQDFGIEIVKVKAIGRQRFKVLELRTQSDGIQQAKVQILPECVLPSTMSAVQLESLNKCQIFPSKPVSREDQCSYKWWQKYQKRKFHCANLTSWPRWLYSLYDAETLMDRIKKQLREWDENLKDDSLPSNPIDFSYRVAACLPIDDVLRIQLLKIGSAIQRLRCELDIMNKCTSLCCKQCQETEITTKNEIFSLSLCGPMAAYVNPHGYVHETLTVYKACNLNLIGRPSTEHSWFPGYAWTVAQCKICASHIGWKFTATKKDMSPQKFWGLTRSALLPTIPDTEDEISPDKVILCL

Row | SMILES | remaining at 12 h [1] [%] | remaining at 6 h [2] [%] | remaining at 48 h [4] [%] | remaining at 72 h [5] [%] | remaining at 24 h [6] [%] | Activity [7] | Activity [8] | viability at 50 µM [3] [%]
1 | Nc1ncc(-c2ccc(S(=O)(=O)NCCCCC(=O)NCC#Cc3cccc4c3CN(C3CCC(=O)NC3=O)C4=O)cc2)nc1-c1nnc(-c2ccccc2)o1 (stereo not drawn) | 105 | 104 | 103 | 107 | 105 | inactive |  | 95.5
2 | CNCc1ccc(-c2nnc(-c3nc(-c4ccc(S(=O)(=O)NCCCCCC(=O)NCCCC#Cc5cccc6c5CN(C5CCC(=O)NC5=O)C6=O)cc4)cnc3N)o2)cc1 (stereo not drawn) | 103 | 104 | 103 | 102 | 103 | inactive |  | 101
3 | CNCc1ccc(-c2nnc(-c3nc(-c4ccc(S(=O)(=O)NCCCCC(=O)NCCCC#Cc5cccc6c5CN(C5CCC(=O)NC5=O)C6=O)cc4)cnc3N)o2)cc1 (stereo not drawn) | 101 | 101 | 100 | 100 | 102 | 40% |  | 107
4 | CNCc1ccc(-c2nnc(-c3nc(-c4ccc(S(=O)(=O)NCCCCCC(=O)NCC#Cc5cccc6c5CN(C5CCC(=O)NC5=O)C6=O)cc4)cnc3N)o2)cc1 (stereo not drawn) | 101 | 101 | 100 | 100 | 101 | > 20% |  | 102
5 | Nc1ncc(-c2ccc(S(=O)(=O)NCCCCC(=O)NCCOc3ccc(C4CCC(=O)NC4=O)cc3)cc2)nc1C(=O)Nc1ccccc1 (stereo not drawn) | 101 | 101 | 99 | 99 | 101 |  | inactive | 66.4
6 | Nc1ncc(-c2ccc(S(=O)(=O)NCCCCCCCC(=O)NCCOc3ccc(C4CCC(=O)NC4=O)cc3)cc2)nc1C(=O)Nc1ccccc1 (stereo not drawn) | 99 | 100 | 100 | 100 | 100 |  | inactive | 62.9
7 | CNCc1ccc(-c2nnc(-c3nc(-c4ccc(S(=O)(=O)NCCCCCCC(=O)NCC#Cc5cccc6c5CN(C5CCC(=O)NC5=O)C6=O)cc4)cnc3N)o2)cc1 (stereo not drawn) | 101 | 101 | 100 | 101 | 101 | > 20% |  | 89.5
8 | CN1C(=O)CCC(N2Cc3c(C#CCCCNC(=O)CCCCCNS(=O)(=O)c4ccc(-c5cnc(N)c(C(=O)Nc6ccccc6)n5)cc4)cccc3C2=O)C1=O (stereo not drawn) | 100 | 100 | 98 | 97 | 99 | inactive |  | 83.5
9 | Nc1ncc(-c2ccc(S(=O)(=O)NCCCCCC(=O)NCC#Cc3cccc4c3CN(C3CCC(=O)NC3=O)C4=O)cc2)nc1-c1nnc(-c2ccccc2)o1 (stereo not drawn) | 105 | 108 | 106 | 106 | 105 | 40% |  | 70.5
10 | Cc1ncsc1-c1ccc(CNC(=O)[C@@H]2C[C@@H](O)CN2C(=O)[C@@H](NC(=O)CCCCCNS(=O)(=O)c2ccc(-c3cnc(N)c(-c4nnc(-c5ccccc5)o4)n3)cc2)C(C)(C)C)cc1 | 100 | 100 | 103 | 104 | 102 |  |  | 79.8
11 | CNCc1ccc(-c2nnc(-c3nc(-c4ccc(S(=O)(=O)NCCCCCCC(=O)NCCCC#Cc5cccc6c5CN(C5CCC(=O)NC5=O)C6=O)cc4)cnc3N)o2)cc1 (stereo not drawn) | 101 | 101 | 95 | 93 | 101 | > 20% |  | 91.8
12 | Cc1ncsc1-c1ccc(CNC(=O)[C@@H]2C[C@@H](O)CN2C(=O)[C@@H](NC(=O)CCCCNS(=O)(=O)c2ccc(-c3cnc(N)c(-c4nnc(-c5ccccc5)o4)n3)cc2)C(C)(C)C)cc1 | 100 | 100 | 103 | 104 | 102 |  |  | 91.1
13 | CNCc1ccc(-c2nnc(-c3nc(-c4ccc(S(=O)(=O)NCCCCCC(=O)N[C@H](C(=O)N5C[C@H](O)C[C@H]5C(=O)NCc5ccc(-c6scnc6C)cc5)C(C)(C)C)cc4)cnc3N)o2)cc1 | 100 | 101 | 99 | 99 | 101 |  |  | 81.8

The next lines start with results.

Row | remaining at 12 h [1] [%] | remaining at 6 h [2] [%] | remaining at 48 h [4] [%] | remaining at 72 h [5] [%] | remaining at 24 h [6] [%] | Activity [7] | Activity [8] | SMILES | viability at 50 µM [3] [%]
14 | 100 | 100 | 77 | 47 | 98 |  |  | Nc1ncc(-c2ccc(S(=O)(=O)NCCCCCCCC(=O)NCC#Cc3cccc4c3CN(C3CCC(=O)NC3=O)C4=O)cc2)nc1C(=O)Nc1ccccc1 (stereo not drawn) | 94.2
15 | 92 | 96 | 80 | 73 | 90 |  | inactive | Nc1ncc(-c2ccc(S(=O)(=O)NCCCCCC(=O)N3CCN(c4ccc5c(c4)C(=O)N(C4CCC(=O)NC4=O)C5=O)CC3)cc2)nc1-c1nnc(-c2ccccc2)o1 (stereo not drawn) | 85.6
16 | 92 | 97 | 78 | 70 | 88 |  |  | Nc1ncc(-c2ccc(S(=O)(=O)NCCCCCCC(=O)N3CCN(c4ccc5c(c4)C(=O)N(C4CCC(=O)NC4=O)C5=O)CC3)cc2)nc1C(=O)Nc1ccccc1 (stereo not drawn) | 93.2
17 | 95 | 99 | 85 | 77 | 91 |  |  | Nc1ncc(-c2ccc(S(=O)(=O)NCCCCC(=O)N3CCN(c4ccc5c(c4)C(=O)N(C4CCC(=O)NC4=O)C5=O)CC3)cc2)nc1-c1nnc(-c2ccccc2)o1 (stereo not drawn) | 97.6
18 | 104 | 102 | 82 | 65 | 97 |  | inactive | Nc1ncc(-c2ccc(S(=O)(=O)NCCCCCC(=O)N3CCN(c4cccc(C(=O)NC5CCC(=O)NC5=O)n4)CC3)cc2)nc1C(=O)Nc1ccccc1 (stereo not drawn) | 86.5
19 | 102 | 102 | 103 | 103 | 102 |  |  | Nc1ncc(-c2ccc(S(=O)(=O)NCCCCC(=O)NCCCC#Cc3cccc4c3CN(C3CCC(=O)NC3=O)C4=O)cc2)nc1C(=O)Nc1ccccc1 (stereo not drawn) | 104
20 | 99 | 97 | 83 | 74 | 91 |  |  | CNCc1ccc(-c2nnc(-c3nc(-c4ccc(S(=O)(=O)NCCCCC(=O)N5CCN(c6ccc7c(c6)C(=O)N(C6CCC(=O)NC6=O)C7=O)CC5)cc4)cnc3N)o2)cc1 (stereo not drawn) | 104
21 | 95 | 100 | 21 | 6 | 80 | inactive |  | Nc1ncc(-c2ccc(S(=O)(=O)NCCOCCOCCC(=O)N3CCN(c4ccc5c(c4)C(=O)N(C4CCC(=O)NC4=O)C5=O)CC3)cc2)nc1C(=O)Nc1ccccc1 (stereo not drawn) | 79.9
22 | 100 | 101 | 83 | 74 | 97 | inactive |  | Nc1ncc(-c2ccc(S(=O)(=O)NCCOCCOCCOCCC(=O)N3CCN(c4ccc5c(c4)C(=O)N(C4CCC(=O)NC4=O)C5=O)CC3)cc2)nc1C(=O)Nc1ccccc1 (stereo not drawn) | 75
23 | 95 | 97 | 79 | 72 | 91 |  |  | CNCc1ccc(-c2nnc(-c3nc(-c4ccc(S(=O)(=O)NCCCCCCC(=O)N5CCN(c6ccc7c(c6)C(=O)N(C6CCC(=O)NC6=O)C7=O)CC5)cc4)cnc3N)o2)cc1 (stereo not drawn) | 95.7
24 | 94 | 97 | 82 | 74 | 90 | inactive |  | Nc1ncc(-c2ccc(S(=O)(=O)NCCCCC(=O)N3CCN(c4ccc5c(c4)C(=O)N(C4CCC(=O)NC4=O)C5=O)CC3)cc2)nc1C(=O)Nc1ccccc1 (stereo not drawn) | 102
25 | 105 | 98 | 94 | 84 | 108 | inactive |  | Nc1ncc(-c2ccc(S(=O)(=O)NCCCCCCCC(=O)N3CCN(c4ccc5c(c4)C(=O)N(C4CCC(=O)NC4=O)C5=O)CC3)cc2)nc1C(=O)Nc1ccccc1 (stereo not drawn) | 90.5
26 | 103 | 101 | 105 | 109 | 104 | Active |  | Nc1ncc(-c2ccc(S(=O)(=O)NCCCCCC(=O)NCC#Cc3cccc4c3CN(C3CCC(=O)NC3=O)C4=O)cc2)nc1C(=O)Nc1ccccc1 (stereo not drawn) | 86.4
